Experiments:
[1] = test system: Escherichia coli in vitro translation; settings: E. coli in vitro translation, cited from earlier work
Description: The accordance of structural features of paenilamicins with the translation inhibitor edeine (Extended Data Fig. 1c) led to the hypothesis that paenilamicins may also exert their antimicrobial activity by binding to the ribosome and inhibiting protein synthesis. […] The best understood context-specific translation inhibitors are those that target the large subunit, where their inhibitory action is influenced by the sequence of the nascent polypeptide chain being synthesized, for example, macrolides and ketolides[30]–[32] ...

[2] = test system: ribosomes translating ErmBL mRNA; test: Toeprinting on ErmBL mRNA templates (Figs. 4a and 5c); type: biochemical, E. coli; settings: 100 µM
Experimental: Toeprinting reactions for Figs. 4a and 5c were performed as described previously. Briefly, reactions were performed with 5 μl of PURExpress in vitro protein synthesis system. The reactions contained 0.1 pmol of the respective DNA template (Supplementary Table 2) and were supplemented with retapamulin, erythromycin, mupirocin or PamB2 as specified. The transcription–translation reactions were incubated 20 min at 37 °C. Subsequently, reverse transcription was performed for 10 min at 37 °C using AMV RT and the radiolabeled NV*1-primer. Reactions were stopped by the addition of 1 µl of 10 M NaOH and then neutralized with 0.8 µl of concentrated HCl. Subsequently, 200 µl of the stop buffer (0.3 M sodium acetate (pH 5.5), 5 mM EDTA and 0.5% SDS) was added and phenol extraction was performed. The obtained complementary DNA was precipitated in ethanol for subsequent gel electrophoresis.

[3] = test system: ribosomes translating ErmBL mRNA; test: Toeprinting on ErmBL mRNA with mutated second codon (Fig. 4b); type: biochemical, E. coli; settings: 50 µM, in duplicate
Experimental: Toeprinting reactions for Fig. 4b and Extended Data Fig. 2 were performed as described previously. Briefly, reactions were performed with 6 μl of PURExpress in vitro protein synthesis system (New England Biolabs). The reactions were carried out with different primers and templates (Supplementary Tables 2 and 3). The reactions contained 340 ng of the respective mRNA template and were supplemented with the different compounds as specified. The translation reactions were incubated for 30 min at 37 °C. The reverse transcription reaction was carried out using AMV RT and primer NV*1-Alexa 647 (5′-[…]-3′). The translation reactions were incubated with the reverse transcriptase and the primer for 20 min at 37 °C. mRNA degradation was carried out by the addition of 1 µl of 5 M NaOH. The reactions were neutralized with 0.7 µl of 25% HCl, and nucleotide removal was performed with the QIAquick Nucleotide Removal Kit (Qiagen). The samples were dried under vacuum for 2 h at 60 °C for subsequent gel electrophoresis. The 6% acrylamide gels were scanned on a Typhoon scanner (GE Healthcare).

[4] = test system: eukaryotic in vitro translation; test: Eukaryotic in vitro translation assay (Rabbit Reticulocyte Lysate System); type: biochemical; settings: 0.01-10 µM
Experimental: The effect of PamB2 on eukaryotic translation was determined using the Rabbit Reticulocyte Lysate System (Promega) as previously described. Briefly, 6-μl reactions, with or without PamB2 were mixed according to the manufacturer’s description and incubated for 30 min at 32 °C with shaking (600 rpm). Each reaction was stopped by adding 3 μl of cycloheximide (600 μM). All samples were diluted with 40 μl of Luciferase assays substrate (Promega) into a white 96-well chimney flat-bottom microtiter plate (Greiner). The luminescence was then measured using a Tecan Infinite M1000 plate reader. Relative values were determined by defining the luminescence value of the sample without inhibitor as 100%.

fungi = settings: cited from earlier work
Description: In the A-site, PamB2 contacts not only with 16S rRNA nucleotides in h44, but also A1913 from H69 of the 23S rRNA, and, in contrast to the P-site, the compound makes extensive interactions with the A-site tRNA, albeit less with the mRNA codon (Fig. 2c–f). Interactions of PamB2 with the A-site tRNA revolve around nucleotides ct^6A37 and A38, which are located in the anticodon-stem loop, directly adjacent to the anticodon (34CAU36) (Fig. 2e,f). Specifically, three direct hydrogen bonds are possible with A38 (Fig. 2e). Interactions with ct^6A37 are indirect, being mediated by water W6, which is co ...

[5] = test system: EF-G-dependent translocation on the ribosome; test: Translocation assay (toeprinting, MFKAFK template); type: biochemical; settings: EF-G present; tRNAfMet in P-site, N-AcPhe-tRNAPhe in A-site; in duplicate
Experimental: Translocation assays were performed as previously described[22] using the MFKAFK template[45] (Supplementary Table 2). Reactions were prepared by incubating tight-coupled ribosomes (0.7 µM) with mRNA (0.5 µM) and tRNAi^Met (1 µM) for 20 min at 37 °C in the Pure System Buffer (5 mM potassium phosphate (pH 7.3), 9 mM Mg(OAc)2, 95 mM potassium glutamate, 5 mM NH4Cl, 0.5 mM CaCl2, 1 mM spermidine, 8 mM putrescine and 1 mM dithiothreitol) and for additional 10 min at 37 °C with 2 μM of N-acetyl-Phe-tRNA^Phe. At the time of N-acetyl-Phe-tRNA^Phe addition, the reactions were supplemented with PamB2 or negamycin as specified. The translocation reaction was initiated by addition of 1 µl of EF-G–GTP mixture (1.2 µM and 3.2 mM). After 5 min of incubation at 30 °C, 2 µl of reverse transcriptase and/or dNTPs mixture was added. The reactions were stopped after another 5 min at 30 °C by addition of 200 µl of the stop buffer and subsequent phenol extraction. The obtained complementary DNA was precipitated in ethanol for subsequent gel electrophoresis.

Question: For paenilamicin B2 [PamB2], which “inhibition of in vitro translation / protein synthesis (in words)” value [1] is on record?
Answer: The value was “potent inhibitor of protein synthesis”.

Question: And the IC50 ([1]; read-out: half-inhibitory concentration (IC50))?
Answer: Its IC50 is 400 nM.

Question: And the “inhibition when Phe-tRNA (ms2i6A37) decodes UUC in the A-site” value ([2]; ErmBL mRNA)?
Answer: The value was “no inhibition”.

Question: What about the “inhibition when tRNALeu (ms2i6A37) decodes UUG in the A-site” value ([2]; ErmBL mRNA) of the same substance?
Answer: The value was “not inhibited”.

Question: What about the “translation through stretches of UUG codons” value ([2]; ErmBL mRNA with 1–5 UUG repeats) of the same substance?
Answer: The value was “ribosomes can translate through stretches of up to five UUG codons unhindered”.

Question: What about the “ribosome stalling at serine codon UCA” value ([2]; ErmBL-(UUG)4 mRNA, seventh codon UCA, tRNASer with ms2i6A37) of the same substance?
Answer: The value was “only weak stalling”.

Question: What about the “ribosome stalling at serine codon UCC” value ([2]; ErmBL-(UUG)4 mRNA, seventh codon UCC, tRNASer lacking A37 modification) of the same substance?
Answer: Its value is “strong stalling”.

Question: And the “ribosome stalling at serine codon UCG” value ([2]; ErmBL-(UUG)4 mRNA, seventh codon UCG, tRNASer with ms2i6A37)?
Answer: The value was “only weak stalling”.

Question: And the “ribosome stalling at serine codon UCU” value ([2]; ErmBL-(UUG)4 mRNA, seventh codon UCU, tRNASer lacking A37 modification)?
Answer: Its value is “strong stalling”.

Question: And the “ribosome stalling at subsequent sites, ErmBL mRNA” value ([2]; fourth UUC (Phe) in the P-site)?
Answer: The value was “a subset of ribosomes also become stalled”.

Question: What about the “accumulation of ribosomes on AUG start codon, wildtype (1×UUG) ErmBL mRNA” value ([2]; mupirocin present, in duplicate) of the same substance?
Answer: Its value is “did not lead to a strong accumulation of ribosomes on the AUG start codon”.

Question: What about the “ribosome stalling, wildtype (1×UUG) ErmBL mRNA” value ([2]; mupirocin present, second codon UUG in the P-site) of the same substance?
Answer: Its value is “ribosomes became stalled only once the second ermBL codon (UUG) moved into the P-site”.

Question: And the “ribosome stalling at subsequent sites, ErmBL mRNA” value ([2]; third GUA codon in the P-site)?
Answer: The value was “not the third GUA codon in the P-site”.

Question: What about the “inhibition of first translocation, A-site codon AUG” value ([3]; ErmBL mRNA second codon AUG) of the same substance?
Answer: Its value is “clear toeprint bands”.

Question: And the “inhibition of first translocation, A-site codon CUG” value ([3]; ErmBL mRNA second codon CUG (tRNALeu, m1G37))?
Answer: The value was “appeared to be stronger than with U, it was reproducibly weaker than with A and G”.

Question: And the “inhibition of first translocation, A-site codon GUG” value ([3]; ErmBL mRNA second codon GUG)?
Answer: Its value is “appeared to be the strongest”.

Question: And the “inhibition of first translocation, A-site codon UUG” value ([3]; ErmBL mRNA second codon UUG)?
Answer: Its value is “little to no inhibition of the first translocation event”.

Question: And the “inhibition of eukaryotic in vitro translation (in words)” value [4]?
Answer: The value was “efficiently inhibits eukaryotic in vitro translation”.

Question: What about the antifungal activity (fungi) of the same substance?
Answer: Its antifungal activity is “antifungal activity”.

Question: And the “EF-G dependent translocation (toeprint shift)” value [5]?
Answer: The value was “little to no shift in the toeprint band”.

Reference: paper PMC11581978, “Paenilamicins are context-specific translocation inhibitors of protein synthesis” (Nature Chemical Biology, 2024)
